Source: the supplement of paper PMC10307832

Assays:
Assay in all cases: relative viability (nuclei count vs DMSO), 5 days (fraction); higher = more cells survive
AZ628 = compound: CC1=C(C=C(C=C1)NC(=O)C2=CC(=CC=C2)C(C)(C)C#N)NC3=CC4=C(C=C3)N=CN(C4=O)C [AZ628]
Method in brief: (§1)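 Following overnight incubation at 37 °C, lung cancer cell lines in 1536-well plates were pinned with five library-drug doses (not always all listed) in √10 steps on vehicle-anchored plates. The cells then spent 5 days without medium change before a combined fix, permeabilisation and Hoechst stain, 4× imaging and MetaXpress nuclear counts. Viability is the treated-to-vehicle ratio of nuclei, taken as the median across plates. Only plates with control CV below 25% and at least one doubling passed.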

Darinaparsin = compound: C[As](C)SC[C@H](NC(=O)CC[C@H](N)C(=O)O)C(=O)NCC(=O)O [Darinaparsin]
Method in brief: as §1

QS11 = compound: C1CC2=C(C1)C=C(C=C2)OC3=NC(=C4C(=N3)N(C=N4)CC5=CC=C(C=C5)C6=CC=CC=C6)N[C@@H](CC7=CC=CC=C7)CO [QS11]
Method in brief: as §1

AZ628 + Crizotinib = compound: CC1=C(C=C(C=C1)NC(=O)C2=CC(=CC=C2)C(C)(C)C#N)NC3=CC4=C(C=C3)N=CN(C4=O)C [AZ628] + C[C@@H](Oc1cc(-c2cnn(C3CCNCC3)c2)cnc1N)c1c(Cl)ccc(F)c1Cl [Crizotinib] (partner 1 µM)
Method in brief: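 The day after seeding in 1536-well plates, lung cancer cell lines were treated by pin tool with a single drug, or with a fixed anchor-drug dose together with five library-drug doses (not always all listed) in √10 steps. After 5 days, a combined fix-and-stain solution (final 0.05% Triton X-100, 1% formaldehyde, 1 ug/ml Hoechst) was added. Nuclei counted on 4× images gave relative viability as treated counts over vehicle counts, reported as the median of duplicate plates.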

H3255
relative viability (AZ628; 0.08 µM): 0.996
relative viability (AZ628; 0.253 µM): 0.908
relative viability (AZ628; 0.8 µM): 0.975
relative viability (AZ628; 2.53 µM): 1.02
relative viability (AZ628; 8 µM): 0.693
relative viability (Darinaparsin; 0.08 µM): 1.02
relative viability (Darinaparsin; 0.8 µM): 1.01
relative viability (Darinaparsin; 2.53 µM): 0.896
relative viability (Darinaparsin; 8 µM): 1.01
relative viability (QS11; 0.08 µM): 0.947
relative viability (QS11; 0.253 µM): 1.01
relative viability (QS11; 2.53 µM): 1.01
relative viability (QS11; 8 µM): 1.08
relative viability (AZ628 + Crizotinib; first compound 0.08 µM): 0.926
relative viability (AZ628 + Crizotinib; first compound 0.253 µM): 0.921
relative viability (AZ628 + Crizotinib; first compound 0.8 µM): 0.949
relative viability (AZ628 + Crizotinib; first compound 2.53 µM): 0.866
relative viability (AZ628 + Crizotinib; first compound 8 µM): 0.704

HCC-827
relative viability (AZ628; 0.08 µM): 1.03
relative viability (AZ628; 0.253 µM): 1.01
relative viability (AZ628; 0.8 µM): 1.03
relative viability (AZ628; 2.53 µM): 1.07
relative viability (AZ628; 8 µM): 0.839
relative viability (Darinaparsin; 0.08 µM): 1.09
relative viability (Darinaparsin; 0.8 µM): 1.02
relative viability (Darinaparsin; 2.53 µM): 1.07
relative viability (Darinaparsin; 8 µM): 1.16
relative viability (QS11; 0.08 µM): 1
relative viability (QS11; 0.253 µM): 1.13
relative viability (QS11; 0.8 µM): 0.813
relative viability (QS11; 2.53 µM): 1.02
relative viability (QS11; 8 µM): 0.931
relative viability (AZ628 + Crizotinib; first compound 0.08 µM): 0.883
relative viability (AZ628 + Crizotinib; first compound 0.253 µM): 0.946
relative viability (AZ628 + Crizotinib; first compound 0.8 µM): 0.928
relative viability (AZ628 + Crizotinib; first compound 2.53 µM): 0.921
relative viability (AZ628 + Crizotinib; first compound 8 µM): 0.865

LXF-289
relative viability (AZ628; 0.08 µM): 1
relative viability (AZ628; 0.253 µM): 0.986
relative viability (AZ628; 0.8 µM): 0.906
relative viability (AZ628; 2.53 µM): 0.98
relative viability (AZ628; 8 µM): 0.722
relative viability (Darinaparsin; 0.08 µM): 1.04
relative viability (Darinaparsin; 0.8 µM): 0.994
relative viability (Darinaparsin; 2.53 µM): 0.941
relative viability (Darinaparsin; 8 µM): 1.13
relative viability (QS11; 0.08 µM): 1
relative viability (QS11; 0.253 µM): 1.04
relative viability (QS11; 0.8 µM): 0.732
relative viability (QS11; 2.53 µM): 0.902
relative viability (QS11; 8 µM): 0.809
relative viability (AZ628 + Crizotinib; first compound 0.08 µM): 0.791
relative viability (AZ628 + Crizotinib; first compound 0.253 µM): 0.749
relative viability (AZ628 + Crizotinib; first compound 0.8 µM): 0.768
relative viability (AZ628 + Crizotinib; first compound 2.53 µM): 0.76
relative viability (AZ628 + Crizotinib; first compound 8 µM): 0.497

NCI-H727
relative viability (AZ628; 0.08 µM): 0.777
relative viability (AZ628; 0.253 µM): 0.531
relative viability (AZ628; 0.8 µM): 0.389
relative viability (AZ628; 2.53 µM): 0.543
relative viability (AZ628; 8 µM): 0.294
relative viability (Darinaparsin; 0.08 µM): 0.895
relative viability (Darinaparsin; 0.8 µM): 0.884
relative viability (Darinaparsin; 2.53 µM): 0.986
relative viability (Darinaparsin; 8 µM): 1.04
relative viability (QS11; 0.08 µM): 0.989
relative viability (QS11; 0.253 µM): 0.975
relative viability (QS11; 0.8 µM): 0.867
relative viability (QS11; 2.53 µM): 0.935
relative viability (QS11; 8 µM): 0.752
relative viability (AZ628 + Crizotinib; first compound 0.08 µM): 0.706
relative viability (AZ628 + Crizotinib; first compound 0.253 µM): 0.523
relative viability (AZ628 + Crizotinib; first compound 0.8 µM): 0.452
relative viability (AZ628 + Crizotinib; first compound 2.53 µM): 0.368
relative viability (AZ628 + Crizotinib; first compound 8 µM): 0.258

NCI-H322M
relative viability (AZ628; 0.08 µM): 1.1
relative viability (AZ628; 0.253 µM): 0.952
relative viability (AZ628; 0.8 µM): 0.986
relative viability (AZ628; 2.53 µM): 0.95
relative viability (AZ628; 8 µM): 0.788
relative viability (Darinaparsin; 0.08 µM): 1.02
relative viability (Darinaparsin; 0.8 µM): 0.951
relative viability (Darinaparsin; 2.53 µM): 0.767
relative viability (Darinaparsin; 8 µM): 1.03
relative viability (QS11; 0.08 µM): 0.923
relative viability (QS11; 0.253 µM): 0.904
relative viability (QS11; 0.8 µM): 0.998
relative viability (QS11; 2.53 µM): 1.15
relative viability (QS11; 8 µM): 1.41
relative viability (AZ628 + Crizotinib; first compound 0.08 µM): 0.819
relative viability (AZ628 + Crizotinib; first compound 0.253 µM): 1.04
relative viability (AZ628 + Crizotinib; first compound 0.8 µM): 1.01
relative viability (AZ628 + Crizotinib; first compound 2.53 µM): 0.795
relative viability (AZ628 + Crizotinib; first compound 8 µM): 0.856

NCI-H2126
relative viability (AZ628; 0.08 µM): 1.04
relative viability (AZ628; 0.253 µM): 1
relative viability (AZ628; 0.8 µM): 0.888
relative viability (AZ628; 2.53 µM): 1.02
relative viability (AZ628; 8 µM): 0.985
relative viability (Darinaparsin; 0.08 µM): 1.1
relative viability (Darinaparsin; 0.8 µM): 1.03
relative viability (Darinaparsin; 2.53 µM): 0.956
relative viability (Darinaparsin; 8 µM): 1.12
relative viability (QS11; 0.08 µM): 0.994
relative viability (QS11; 0.253 µM): 0.944
relative viability (QS11; 0.8 µM): 0.905
relative viability (QS11; 2.53 µM): 0.965
relative viability (QS11; 8 µM): 0.799
relative viability (AZ628 + Crizotinib; first compound 0.08 µM): 1.04
relative viability (AZ628 + Crizotinib; first compound 0.253 µM): 0.98
relative viability (AZ628 + Crizotinib; first compound 0.8 µM): 1.06
relative viability (AZ628 + Crizotinib; first compound 2.53 µM): 1.07
relative viability (AZ628 + Crizotinib; first compound 8 µM): 1.03

NCI-H2405
relative viability (AZ628; 0.08 µM): 0.724
relative viability (AZ628; 0.253 µM): 0.476
relative viability (AZ628; 0.8 µM): 0.612
relative viability (AZ628; 2.53 µM): 0.67
relative viability (AZ628; 8 µM): 0.558
relative viability (Darinaparsin; 0.08 µM): 1.09
relative viability (Darinaparsin; 0.8 µM): 0.926
relative viability (Darinaparsin; 2.53 µM): 0.975
relative viability (Darinaparsin; 8 µM): 1.04
relative viability (QS11; 0.08 µM): 0.976
relative viability (QS11; 0.253 µM): 0.992
relative viability (QS11; 0.8 µM): 0.875
relative viability (QS11; 2.53 µM): 1.09
relative viability (QS11; 8 µM): 1.07
relative viability (AZ628 + Crizotinib; first compound 0.08 µM): 0.478
relative viability (AZ628 + Crizotinib; first compound 0.253 µM): 0.66
relative viability (AZ628 + Crizotinib; first compound 0.8 µM): 0.522
relative viability (AZ628 + Crizotinib; first compound 2.53 µM): 0.588
relative viability (AZ628 + Crizotinib; first compound 8 µM): 0.568

NCI-H1944
relative viability (AZ628; 0.08 µM): 1.06
relative viability (AZ628; 0.253 µM): 0.917
relative viability (AZ628; 0.8 µM): 0.792
relative viability (AZ628; 2.53 µM): 0.729
relative viability (AZ628; 8 µM): 0.727
relative viability (Darinaparsin; 0.08 µM): 1
relative viability (Darinaparsin; 0.8 µM): 0.997
relative viability (Darinaparsin; 2.53 µM): 0.959
relative viability (Darinaparsin; 8 µM): 1.14
relative viability (QS11; 0.08 µM): 0.999
relative viability (QS11; 0.253 µM): 0.947
relative viability (QS11; 2.53 µM): 0.958
relative viability (QS11; 8 µM): 0.884
relative viability (AZ628 + Crizotinib; first compound 0.08 µM): 1.2
relative viability (AZ628 + Crizotinib; first compound 0.253 µM): 1.09
relative viability (AZ628 + Crizotinib; first compound 0.8 µM): 0.97
relative viability (AZ628 + Crizotinib; first compound 2.53 µM): 0.973
relative viability (AZ628 + Crizotinib; first compound 8 µM): 0.878

NCI-H520
relative viability (AZ628; 0.08 µM): 1.06
relative viability (AZ628; 0.253 µM): 0.994
relative viability (AZ628; 0.8 µM): 0.937
relative viability (AZ628; 2.53 µM): 0.937
relative viability (AZ628; 8 µM): 0.878
relative viability (Darinaparsin; 0.08 µM): 1.12
relative viability (Darinaparsin; 0.8 µM): 0.947
relative viability (Darinaparsin; 2.53 µM): 0.833
relative viability (Darinaparsin; 8 µM): 1.09
relative viability (QS11; 0.08 µM): 0.864
relative viability (QS11; 0.253 µM): 1.04
relative viability (QS11; 0.8 µM): 1.12
relative viability (QS11; 2.53 µM): 1.11
relative viability (QS11; 8 µM): 1.14
relative viability (AZ628 + Crizotinib; first compound 0.08 µM): 0.707
relative viability (AZ628 + Crizotinib; first compound 0.253 µM): 0.788
relative viability (AZ628 + Crizotinib; first compound 0.8 µM): 0.601
relative viability (AZ628 + Crizotinib; first compound 2.53 µM): 0.833
relative viability (AZ628 + Crizotinib; first compound 8 µM): 0.576

NCI-H2228
relative viability (AZ628; 0.08 µM): 0.994
relative viability (AZ628; 0.253 µM): 1.16
relative viability (AZ628; 0.8 µM): 0.968
relative viability (AZ628; 2.53 µM): 1.02
relative viability (AZ628; 8 µM): 0.84
relative viability (Darinaparsin; 0.08 µM): 1.39
relative viability (Darinaparsin; 0.8 µM): 1.18
relative viability (Darinaparsin; 2.53 µM): 0.915
relative viability (Darinaparsin; 8 µM): 1.35
relative viability (QS11; 0.08 µM): 0.902
relative viability (QS11; 0.253 µM): 1.01
relative viability (QS11; 0.8 µM): 0.97
relative viability (QS11; 2.53 µM): 1.09
relative viability (QS11; 8 µM): 1.32
relative viability (AZ628 + Crizotinib; first compound 0.08 µM): 0.372
relative viability (AZ628 + Crizotinib; first compound 0.253 µM): 0.486
relative viability (AZ628 + Crizotinib; first compound 0.8 µM): 0.5
relative viability (AZ628 + Crizotinib; first compound 2.53 µM): 0.41
relative viability (AZ628 + Crizotinib; first compound 8 µM): 0.531

EKVX
relative viability (AZ628; 0.08 µM): 1.05
relative viability (AZ628; 0.253 µM): 0.959
relative viability (AZ628; 0.8 µM): 1
relative viability (AZ628; 2.53 µM): 0.939
relative viability (AZ628; 8 µM): 0.774
relative viability (Darinaparsin; 0.08 µM): 1.04
relative viability (Darinaparsin; 0.8 µM): 0.922
relative viability (Darinaparsin; 2.53 µM): 0.943
relative viability (Darinaparsin; 8 µM): 1.04
relative viability (QS11; 0.08 µM): 0.973
relative viability (QS11; 0.253 µM): 0.922
relative viability (QS11; 0.8 µM): 0.602
relative viability (QS11; 2.53 µM): 0.907
relative viability (QS11; 8 µM): 1.06
relative viability (AZ628 + Crizotinib; first compound 0.08 µM): 1.16
relative viability (AZ628 + Crizotinib; first compound 0.253 µM): 0.913
relative viability (AZ628 + Crizotinib; first compound 0.8 µM): 1
relative viability (AZ628 + Crizotinib; first compound 2.53 µM): 0.975
relative viability (AZ628 + Crizotinib; first compound 8 µM): 0.751
